Measured values from ChEMBL document CHEMBL4725240, “Non-'classical' MEKs: A review of MEK3-7 inhibitors” (Bioorg Med Chem Lett, 2020).

Columns and labels:
[1] = Inhibition of flag-tagged MEK4 Q253Y/I258V/R262M mutant (unknown origin) expressed in HEK-293T cells after 20 mins in presence of [32P]-ATP; assay type: cell-based, Homo sapiens
[2] = Inhibition of HA-tagged MEK7 R283Y/K288V/R292M mutant (unknown origin) expressed in HEK-293T cells after 20 mins in presence of [32P]-ATP; assay type: cell-based, Homo sapiens
[3] = target: Aurora kinase B (Homo sapiens) (UniProt Q96GD4); test: Inhibition of N- terminal GST-tagged/His6-tagged human recombinant full length Aurora kinase B ([…]) expressed in baculovirus sf21 cells at 1 uM relative to control
Sequence of Aurora kinase B (Homo sapiens) (Q96GD4 whole entry, the tested form may be a part): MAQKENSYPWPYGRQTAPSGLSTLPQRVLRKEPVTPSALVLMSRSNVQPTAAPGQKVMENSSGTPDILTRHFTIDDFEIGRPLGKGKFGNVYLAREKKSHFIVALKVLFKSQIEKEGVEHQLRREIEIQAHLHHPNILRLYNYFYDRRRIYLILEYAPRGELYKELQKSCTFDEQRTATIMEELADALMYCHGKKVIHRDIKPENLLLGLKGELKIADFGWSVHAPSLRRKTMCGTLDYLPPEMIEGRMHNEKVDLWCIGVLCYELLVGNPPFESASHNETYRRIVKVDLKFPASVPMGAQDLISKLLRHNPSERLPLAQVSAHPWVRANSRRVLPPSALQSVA

[4] = target: Leucine-rich repeat serine/threonine-protein kinase 2 (Homo sapiens) (UniProt Q5S007); test: Inhibition of wild type full length recombinant human LRRK2 (H970 to E2527 residues) at 1 uM relative to control
Sequence of Leucine-rich repeat serine/threonine-protein kinase 2 (Homo sapiens) (Q5S007 whole entry, the tested form may be a part): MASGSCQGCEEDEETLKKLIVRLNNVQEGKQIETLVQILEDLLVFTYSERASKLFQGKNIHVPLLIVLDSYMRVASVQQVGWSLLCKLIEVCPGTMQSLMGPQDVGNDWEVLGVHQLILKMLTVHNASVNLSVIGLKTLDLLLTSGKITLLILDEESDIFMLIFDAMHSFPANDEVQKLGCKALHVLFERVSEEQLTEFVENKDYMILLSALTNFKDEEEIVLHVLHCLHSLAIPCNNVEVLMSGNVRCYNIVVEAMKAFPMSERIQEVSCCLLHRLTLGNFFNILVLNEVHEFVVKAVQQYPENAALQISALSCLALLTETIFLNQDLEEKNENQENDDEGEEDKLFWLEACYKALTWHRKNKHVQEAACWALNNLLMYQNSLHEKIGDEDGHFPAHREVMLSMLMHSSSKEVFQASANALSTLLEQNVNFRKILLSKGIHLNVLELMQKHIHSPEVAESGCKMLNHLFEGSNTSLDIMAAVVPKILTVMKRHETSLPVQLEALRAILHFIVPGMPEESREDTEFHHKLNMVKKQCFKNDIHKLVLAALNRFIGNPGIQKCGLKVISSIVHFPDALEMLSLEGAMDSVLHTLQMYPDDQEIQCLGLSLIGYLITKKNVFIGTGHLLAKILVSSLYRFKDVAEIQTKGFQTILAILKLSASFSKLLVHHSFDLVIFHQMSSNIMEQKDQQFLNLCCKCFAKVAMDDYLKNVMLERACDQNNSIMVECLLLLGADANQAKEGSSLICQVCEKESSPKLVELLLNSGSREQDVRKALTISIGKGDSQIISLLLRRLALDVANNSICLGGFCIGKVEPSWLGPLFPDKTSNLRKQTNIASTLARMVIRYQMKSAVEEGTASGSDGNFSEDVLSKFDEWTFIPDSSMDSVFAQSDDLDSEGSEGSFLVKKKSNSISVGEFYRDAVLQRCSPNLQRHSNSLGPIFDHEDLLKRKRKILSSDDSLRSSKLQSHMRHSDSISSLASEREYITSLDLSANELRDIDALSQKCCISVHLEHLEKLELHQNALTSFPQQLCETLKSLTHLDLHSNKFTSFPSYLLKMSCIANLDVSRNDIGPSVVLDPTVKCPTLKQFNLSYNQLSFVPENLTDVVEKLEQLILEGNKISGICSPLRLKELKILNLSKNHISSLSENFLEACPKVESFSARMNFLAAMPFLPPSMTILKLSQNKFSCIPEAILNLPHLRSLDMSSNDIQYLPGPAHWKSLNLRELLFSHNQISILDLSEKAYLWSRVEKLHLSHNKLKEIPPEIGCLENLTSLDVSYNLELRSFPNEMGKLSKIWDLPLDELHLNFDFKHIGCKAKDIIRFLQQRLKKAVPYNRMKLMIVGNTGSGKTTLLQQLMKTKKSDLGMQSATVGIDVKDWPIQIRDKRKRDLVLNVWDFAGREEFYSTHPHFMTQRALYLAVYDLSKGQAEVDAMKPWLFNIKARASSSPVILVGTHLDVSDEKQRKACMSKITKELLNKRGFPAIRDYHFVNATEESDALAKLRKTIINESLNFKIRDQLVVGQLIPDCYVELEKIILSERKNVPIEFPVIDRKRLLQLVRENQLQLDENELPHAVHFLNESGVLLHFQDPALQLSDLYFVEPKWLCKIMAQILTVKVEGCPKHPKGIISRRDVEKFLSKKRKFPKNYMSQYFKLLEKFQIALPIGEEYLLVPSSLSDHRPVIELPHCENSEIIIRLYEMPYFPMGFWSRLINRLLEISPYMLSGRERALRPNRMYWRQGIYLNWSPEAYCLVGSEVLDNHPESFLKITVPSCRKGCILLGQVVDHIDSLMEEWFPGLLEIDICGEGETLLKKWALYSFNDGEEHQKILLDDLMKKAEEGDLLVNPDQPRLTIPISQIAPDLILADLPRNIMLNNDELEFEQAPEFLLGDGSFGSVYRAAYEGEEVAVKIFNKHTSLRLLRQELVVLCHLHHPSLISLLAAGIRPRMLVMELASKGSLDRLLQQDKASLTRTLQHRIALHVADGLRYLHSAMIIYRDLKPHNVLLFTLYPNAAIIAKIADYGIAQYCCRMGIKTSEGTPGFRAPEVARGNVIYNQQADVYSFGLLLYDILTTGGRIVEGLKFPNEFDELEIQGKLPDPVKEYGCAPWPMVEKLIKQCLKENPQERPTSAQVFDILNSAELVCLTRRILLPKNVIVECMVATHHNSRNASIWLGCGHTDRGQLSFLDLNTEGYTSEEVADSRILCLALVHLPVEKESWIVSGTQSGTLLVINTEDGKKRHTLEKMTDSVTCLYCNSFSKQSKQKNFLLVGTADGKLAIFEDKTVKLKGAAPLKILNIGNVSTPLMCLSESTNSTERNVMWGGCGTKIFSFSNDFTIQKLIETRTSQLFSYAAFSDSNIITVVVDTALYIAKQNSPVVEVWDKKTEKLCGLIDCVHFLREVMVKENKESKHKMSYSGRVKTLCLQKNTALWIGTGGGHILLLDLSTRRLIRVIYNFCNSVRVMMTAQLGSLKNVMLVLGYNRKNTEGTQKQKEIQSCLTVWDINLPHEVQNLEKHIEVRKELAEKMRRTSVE

[5] = target: T1, Dual specificity mitogen-activated protein kinase kinase 4 (Homo sapiens) (UniProt P45985); test: Inhibition of wild type recombinant human MEK4 (S84 to D399 residues) at 1 uM relative to control
T1 sequence (whole entry): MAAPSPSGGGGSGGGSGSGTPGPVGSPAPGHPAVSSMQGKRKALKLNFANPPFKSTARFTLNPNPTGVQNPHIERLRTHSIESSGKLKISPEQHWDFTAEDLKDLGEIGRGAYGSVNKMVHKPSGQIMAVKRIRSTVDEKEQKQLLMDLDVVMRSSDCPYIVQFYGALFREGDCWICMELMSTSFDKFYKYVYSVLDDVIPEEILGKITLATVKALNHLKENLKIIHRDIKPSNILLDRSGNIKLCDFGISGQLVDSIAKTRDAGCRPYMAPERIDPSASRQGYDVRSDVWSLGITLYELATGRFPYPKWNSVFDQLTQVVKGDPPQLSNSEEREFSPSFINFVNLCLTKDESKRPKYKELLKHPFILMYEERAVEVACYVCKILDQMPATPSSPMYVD

Homo sapiens [6] = species on record: Homo sapiens; test: Selectivity ratio of IC50 for TGFbetaR1 (unknown origin) to IC50 for MEK5 (unknown origin)
Homo sapiens [7] = species on record: Homo sapiens; test: Selectivity ratio of IC50 for ERK5 (unknown origin) to IC50 for MEK5 (unknown origin)
[8] = target: T2, Dual specificity mitogen-activated protein kinase kinase 7 (Homo sapiens, UniProt O14733); test: Inhibition of MEK7 (unknown origin)
T2 sequence (O14733 whole entry): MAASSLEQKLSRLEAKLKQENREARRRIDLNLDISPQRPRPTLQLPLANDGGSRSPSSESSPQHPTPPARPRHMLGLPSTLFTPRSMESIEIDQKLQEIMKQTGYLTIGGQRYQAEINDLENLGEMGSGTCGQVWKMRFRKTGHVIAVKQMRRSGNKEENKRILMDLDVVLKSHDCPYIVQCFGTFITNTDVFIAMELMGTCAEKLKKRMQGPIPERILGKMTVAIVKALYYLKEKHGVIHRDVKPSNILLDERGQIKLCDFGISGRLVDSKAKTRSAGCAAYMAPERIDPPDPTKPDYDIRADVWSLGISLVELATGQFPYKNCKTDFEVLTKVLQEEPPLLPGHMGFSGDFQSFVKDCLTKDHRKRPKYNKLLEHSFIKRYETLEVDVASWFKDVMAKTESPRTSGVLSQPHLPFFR

Homo sapiens [9] = species on record: Homo sapiens; test: Selectivity ratio of IC50 for CDC25A (unknown origin) to IC50 for MEK7 (unknown origin)
Homo sapiens [10] = species on record: Homo sapiens; test: Selectivity ratio of IC50 for CDC25B (unknown origin) to IC50 for MEK7 (unknown origin)
Homo sapiens [11] = species on record: Homo sapiens; test: Selectivity ratio of IC50 for MEK1 (unknown origin) to IC50 for MEK6 (unknown origin)
Homo sapiens [12] = species on record: Homo sapiens; test: Selectivity ratio of IC50 for MEK3 (unknown origin) to IC50 for MEK6 (unknown origin)
[13] = target: T3, Dual specificity mitogen-activated protein kinase kinase 6 (Homo sapiens, UniProt P52564); test: Inhibition of MEK6 (unknown origin)
T3 sequence (P52564 whole entry): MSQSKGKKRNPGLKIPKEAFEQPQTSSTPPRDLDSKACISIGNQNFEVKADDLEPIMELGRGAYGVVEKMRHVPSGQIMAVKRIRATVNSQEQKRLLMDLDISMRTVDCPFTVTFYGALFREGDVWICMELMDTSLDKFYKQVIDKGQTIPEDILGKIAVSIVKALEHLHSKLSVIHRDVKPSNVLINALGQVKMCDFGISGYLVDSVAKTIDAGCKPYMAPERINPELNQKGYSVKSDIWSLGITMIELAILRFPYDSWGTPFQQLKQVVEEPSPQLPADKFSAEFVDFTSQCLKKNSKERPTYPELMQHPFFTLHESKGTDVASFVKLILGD

Homo sapiens [14] = species on record: Homo sapiens; test: Selectivity ratio of IC50 for MEK4 (unknown origin) to IC50 for MEK6 (unknown origin)
Homo sapiens [15] = species on record: Homo sapiens; test: Selectivity ratio of IC50 for MEK2 (unknown origin) to IC50 for MEK6 (unknown origin)
[16] = target: T4, Tyrosine-protein kinase JAK3 (Homo sapiens) (UniProt P52333); test: Inhibition of recombinant human N-terminal His6-tagged JAK3 (781 to end residues) expressed in baculovirus infected Sf21 cells at 1 uM relative to control
T4 sequence (whole entry): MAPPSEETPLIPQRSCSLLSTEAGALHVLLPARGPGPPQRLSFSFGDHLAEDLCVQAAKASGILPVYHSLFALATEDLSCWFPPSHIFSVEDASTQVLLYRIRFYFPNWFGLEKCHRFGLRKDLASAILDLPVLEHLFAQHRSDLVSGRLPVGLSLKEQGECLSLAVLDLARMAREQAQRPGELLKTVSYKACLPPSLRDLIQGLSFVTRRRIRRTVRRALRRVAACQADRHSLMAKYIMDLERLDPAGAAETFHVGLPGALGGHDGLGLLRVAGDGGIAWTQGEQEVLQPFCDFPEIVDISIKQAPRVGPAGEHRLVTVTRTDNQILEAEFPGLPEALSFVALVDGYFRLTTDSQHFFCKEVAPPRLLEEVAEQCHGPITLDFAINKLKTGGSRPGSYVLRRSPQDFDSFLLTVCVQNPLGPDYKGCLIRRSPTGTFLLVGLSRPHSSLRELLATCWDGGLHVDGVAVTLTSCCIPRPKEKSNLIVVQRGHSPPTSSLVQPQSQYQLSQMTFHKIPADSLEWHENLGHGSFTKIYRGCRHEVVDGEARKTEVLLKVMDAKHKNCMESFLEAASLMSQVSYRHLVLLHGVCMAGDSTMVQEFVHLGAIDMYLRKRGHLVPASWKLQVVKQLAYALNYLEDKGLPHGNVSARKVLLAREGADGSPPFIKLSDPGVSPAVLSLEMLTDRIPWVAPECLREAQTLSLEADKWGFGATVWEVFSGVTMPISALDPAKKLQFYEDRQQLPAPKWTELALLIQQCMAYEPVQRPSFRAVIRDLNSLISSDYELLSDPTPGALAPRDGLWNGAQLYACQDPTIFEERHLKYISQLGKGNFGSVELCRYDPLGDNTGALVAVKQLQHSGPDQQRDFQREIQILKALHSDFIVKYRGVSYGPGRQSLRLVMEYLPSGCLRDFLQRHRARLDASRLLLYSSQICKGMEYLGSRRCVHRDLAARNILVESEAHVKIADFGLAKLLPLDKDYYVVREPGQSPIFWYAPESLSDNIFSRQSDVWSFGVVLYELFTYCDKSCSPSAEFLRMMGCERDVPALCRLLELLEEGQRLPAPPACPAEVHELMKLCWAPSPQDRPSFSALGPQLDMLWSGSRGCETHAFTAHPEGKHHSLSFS

## COc1ccc2c(Cc3ccc(O[Si](C)(C)C(C)(C)C)cc3)c3[n+](cc2c1OC)CCc1ccccc1-3
[1]
  IC50: 6 µM
[2]
  IC50: 10 µM

## C=CC(=O)Nc1cccc(-c2n[nH]c3cc(C)ccc23)c1
[3]
  inhibition: > 75%
[4]
  inhibition: > 75%
[5]
  inhibition: > 75%

## CN(C)Cc1cccc(N/C(=C2\C(=O)Nc3cc(C(N)=O)ccc32)c2ccccc2)c1
Homo sapiens [6]
  Ratio IC50: 580
Homo sapiens [7]
  Ratio IC50: 60

## O=C(O)c1cccc(NC2=CC(=O)c3ccccc3C2=O)c1
[8]
  IC50: 1.9 µM
Homo sapiens [9]
  Ratio IC50: 17
Homo sapiens [10]
  Ratio IC50: 12

## C=C(CC)C(=O)c1ccc(OCC(=O)O)c(Cl)c1Cl [ETHACRYNIC ACID]
Homo sapiens [11]
  Ratio IC50: 12
Homo sapiens [12]
  Ratio IC50: 3
[13]
  IC50: 4.5 µM
Homo sapiens [14]
  Ratio IC50: 3
Homo sapiens [15]
  Ratio IC50: 9

## O=C(O)CCSC1=CC(=O)c2ccccc2C1=O
[8]
  IC50: 0.23 µM

## C=CC(=O)Nc1cccc(-c2n[nH]c3ccccc23)c1
[3]
  inhibition: > 75%
[4]
  inhibition: > 75%
[5]
  inhibition: > 75%
[16]
  inhibition: > 75%
